Measurements taken from the METLIN SMRT retention time set (Domingo-Almenara et al. 2019).

Test: gradient 5% acetonitrile 3 min, to 50% in 2 min, to 85% in 15 min, held 3 min, 100 µL/min
Conditions: column: Zorbax Extend-C18 2.1 x 50 mm; eluents: water / acetonitrile, 0.1% formic acid
Outline: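 Retention time was recorded from adduct peaks, which were picked computationally and each inspected manually. Pure standards ran in mixtures of ~100 molecules on HPLC coupled to a quadrupole time-of-flight mass spectrometer, in positive and negative ionization mode, through a Zorbax Extend-C18 column (2.1 × 50 mm, 1.8 μm) at 100 μL/min. Eluents were water and acetonitrile, each with 0.1% formic acid.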

RP-LC retention time [s] | Compound
601 | Cc1ccc2cc(CCC(=O)NCCN3CCCCC3)c(=O)[nH]c2c1
955 | COc1ccc(-c2nnc(-c3ccccc3)o2)cc1S(=O)(=O)NC(C)(C)C
809 | O=C(CN1CCN(Cc2ccc(F)cc2)C1=O)NCc1ccc(F)cc1F
638 | O=C(c1ccc(Cl)cc1)N1CCN(c2nc(CN3CCOCC3)cs2)CC1
681 | Cc1ccc(CNC(=O)NC2CCN(C(=O)N3C[C@H]4C[C@H](C3)[C@H]3CCCC(=O)N3C4)CC2)cc1
581 | CCOc1ccccc1CN1CCn2c(nnc2[C@@H]2C[C@@H](O)CN2Cc2cccnc2)C1
941 | CCOC(=O)c1cccc(Nc2c(-c3ccc(C)cc3)nc3cnccn23)c1
576 | COCCOCC(=O)NCC1CCCCC(=O)N1 (stereo not drawn)
971 | CN1C(=O)C2CCCCN2c2ccc(C(=O)NCCc3ccc(Cl)cc3)cc21 (stereo not drawn)
861 | COc1ccc(CNC(=O)CSc2nccc(N3CCN(c4cc(C)ccc4C)CC3)n2)cc1
746 | Cc1oc(-c2[nH]ncc2C(=O)N2CCCC2)cc1S(=O)(=O)N1CCC(C)CC1
1120 | Cc1cc(=O)n(CC(=O)Nc2ccc(F)cc2)c(-c2ccc(Cl)cc2)n1
982 | CSc1ccc(CCNC(=O)c2nnc(-c3ccc(S(=O)(=O)N4CCCC4)cc3)o2)cc1
1010 | O=C(Cc1cccs1)Nc1cccc(OCc2nnc(-c3ccc(Cl)cc3)o2)c1
721 | COC(=O)c1cnc2nc(C)ccc2c1Nc1ccc(Cl)cc1C
889 | COc1ccc(OC)c(NS(=O)(=O)c2ccc3c(c2)-c2oncc2CO3)c1
826 | Cc1cc(-c2nnc(-c3ccccc3)o2)c(C)n1CC(=O)NCc1ccco1
1070 | O=C(c1ccco1)N1CCc2cc(-c3csc(C4CC4)n3)ccc21
912 | COc1ccc(C)cc1NC(=O)Cn1nc2cc(C)nc(-c3ccc(F)cc3)n2c1=O
622 | C=CCNC(=O)c1nnc2n(c1=O)CCN2c1ccc(F)cc1
1070 | Cc1sc2ccn(CC(C)C)c(=O)c2c1C(=O)NCc1cc(F)cc(F)c1
976 | Cc1ccc(NC(=O)Cn2nc(N3CCSCC3)c3ccccc3c2=O)cc1F

RP-LC retention time [s] | Compound
750 | COc1ccc2c(Sc3ccccc3)c(C(=O)N3CCN(c4ccccn4)CC3)[nH]c2c1
804 | COC(=O)C1=CN(c2ccc(OC)cc2)c2ccc(F)cc2S1(=O)=O
837 | CC1=C(c2ccc(F)cc2)S(=O)(=O)N=C1N1CCCN(C(=O)NCCC(C)C)CC1
712 | CCOc1ccc(NC(=O)Cc2cn(C)c3ncccc23)cc1
974 | Cc1cc(F)ccc1NC(=O)C(C)C1CCN(C(=O)Nc2ccc(Cl)cc2)CC1 (stereo not drawn)
623 | CCNC(=O)C1CCN(S(=O)(=O)c2ccc3c(c2)NC(=O)CO3)CC1
772 | CN(CC1CCOCC1)C(=O)Nc1ccc(Cl)cc1
1100 | COc1ccc(-c2noc(-c3nnn(Cc4nc(-c5ccccc5OC)oc4C)c3C)n2)cc1
1030 | Cn1nc(C(F)(F)F)cc1C(=O)N1CCCC1c1ccccc1Cl (stereo not drawn)
848 | CCN1c2ccc(F)cc2C(=O)NC12CCN(C(=O)Cc1ccc(Cl)cc1)CC2
580 | CCCc1cc(N2CCN(C(=O)c3ccncc3)CC2)nc2nnc(CC)n12
995 | O=C(COc1ccccc1Cl)Nc1cncc(-c2nc3ccccc3o2)c1
690 | CCCNC(=O)C1CCCN(c2nc(C)nc3onc(C)c23)C1 (stereo not drawn)
596 | O=C(NC1CC1)[C@@H]1C[C@H](Oc2cccnc2)CN1C(=O)Cn1c(=O)oc2ccccc21
886 | CS(=O)(=O)N1CCCC(C(=O)N(Cc2ccccc2)Cc2ccccc2)C1 (stereo not drawn)
835 | Cc1ccc(Cl)cc1NC(=O)N1CCC(n2c(-c3ccco3)nc3cccnc32)C1 (stereo not drawn)
543 | COc1ccc(Cl)cc1C(=O)N1CCC(c2nc3ccncc3n2C(C)C)C1 (stereo not drawn)
1070 | O=C(/C=C/c1ccccc1)Nc1nc(-c2ccccc2)cs1
786 | OC(c1cc(C(F)(F)F)nc2c(Cl)cc(Cl)cc12)C1CCCCN1 (stereo not drawn)
812 | O=C(Nc1ccc(N2CCOCC2)cc1)C1CN(S(=O)(=O)C2CC2)CC12CCCCC2 (stereo not drawn)
574 | Cc1oc(-c2[nH]ncc2C(=O)N2CCCC2)cc1S(=O)(=O)N1CCN(C)CC1
705 | Cc1ccc(NC(=O)N2CCC(c3nc(C(=O)N(C)C)c(C)o3)CC2)cc1

RP-LC retention time [s] | Compound
866 | CCc1ccc(-n2nnc(C(=O)N3CCCCC3C)c2-c2cccnc2)cc1 (stereo not drawn)
590 | Nc1nc(Cl)nc2c1ncn2[C@@H]1O[C@H](CO)[C@@H](O)[C@H]1O
825 | Cc1cc2c(c(=O)n(-c3ccc(F)cc3)c(=O)n2CC(=O)Nc2ccc(F)cc2)n1C
1000 | O=C1C2C=CC=CC2=NC(=S)N1CCN1CCC(=C(c2ccc(F)cc2)c2ccc(F)cc2)CC1 (stereo not drawn)
826 | COc1ccc(Br)c2c1C(=O)CC2
592 | CCN1CCN(CCNC(=O)c2c(N3CCCC3=O)c3cc(OC)ccc3n2C)CC1
928 | Cn1nc(-c2nc(C3CC3)no2)c2c1CCN(C(=O)c1ccc(Cl)s1)C2
988 | Cn1c(C(=O)N2CCCc3ccccc32)cc2c(=O)oc3ccccc3c21
828 | CC(C)NC(=O)c1ccc(OCC2CCN(C(=O)c3ccccc3)CC2)cc1
551 | O=c1c(NCCc2ccccn2)nc2ccncc2n1Cc1ccccc1
783 | CCc1ccc(CNC(=O)Cn2ccc3c(=O)n(CC)c(=O)n(CC)c32)cc1
534 | COCCn1c(CCCC(=O)NCc2cccnc2)nc2cccnc21
803 | O=C(CN1C(=O)CN(C(=O)NCc2ccccc2)c2ccccc21)NCCc1ccco1
828 | CCOC(=O)c1c(S(=O)(=O)N2CCC(C(=O)NC3CCCCC3)CC2)c(C)n(C)c1C
910 | CC1CCN(S(=O)(=O)c2cccn(CC(=O)N3CCCc4ccccc43)c2=O)CC1
699 | CCc1ccc(Nc2c(C(=O)N3CCC(C)CC3)cnc3nc(C)ccc23)cc1
600 | CC1CCCCN1CCCNC(=O)Cn1c2ccccc2c2cnn(C)c(=O)c21 (stereo not drawn)
676 | Cc1oc(-c2[nH]ncc2C(=O)N2CCCC2)cc1S(=O)(=O)Nc1ccccc1F
558 | NC(=O)c1cc(=O)[nH]c2ccc(F)cc12
872 | CCn1c(CCC(=O)NCc2ccc(F)cc2F)nc2c(C)cccc2c1=O
911 | Cc1cc(N2CCCC2)nc(N2CCN(S(=O)(=O)c3ccc(-c4ccccc4)cc3)CC2)n1
837 | CCOc1ccc(NC(=O)c2oc3ccc(CC)cc3c2C)c2cccnc12

RP-LC retention time [s] | Compound
1080 | O=c1c2sccc2n(Cc2nc(-c3cccc(Br)c3)no2)c(=O)n1-c1cccc(F)c1
818 | O=C(Cn1c(=O)c2cccn2c2ccc(F)cc21)NCc1ccc(F)cc1
670 | Cc1nnc2c(=O)n(CC(=O)NCc3cc(F)ccc3F)c3cccnc3n12
750 | Cn1cc(S(=O)(=O)N2CCC(C(=O)Nc3ccc(F)cc3)CC2)cc1C(=O)N1CCCC1
796 | O=C(COc1ccc(Cl)cc1)Nc1nnc(Cc2cccs2)o1
865 | O=C(CCn1nnc2cc(-c3noc(-c4ccccc4F)n3)ccc21)N1CCCC1
697 | COc1ccc(C2Cn3cnc(C(=O)N4CCC(C(=O)NC5CCCCC5)CC4)c3CO2)cc1 (stereo not drawn)
825 | CCOc1ccc(-c2nc(-c3ccc4c(c3)ncn4CCC(=O)N3CCCC3)no2)cc1
782 | CCCCN1C(SCC(=O)NCc2cccs2)=NS(=O)(=O)c2ccccc21
1130 | Cc1sc(-c2nc(C(C)C)cs2)cc1S(=O)(=O)NCc1ccc2c(c1)OCO2
782 | Cc1ccc(-c2nnc(-c3nn(C)c4c3CN(S(=O)(=O)c3c(C)n[nH]c3C)CC4)o2)cc1
878 | Cc1ccc(Cl)cc1NC(=O)C(=O)c1cccn1C
809 | Cc1ccc(NC(=O)Cn2nc(N3CCOCC3)c3ccccc3c2=O)c(C)c1
589 | CC(C)NC(=O)Cn1c(-c2ccccc2F)nc2ccccc21
546 | CN1CCCC1c1nc(C2CN(C(=O)c3cnccn3)C2)no1 (stereo not drawn)
901 | COc1ccc(-c2cc3nn(CC(=O)Nc4ccccc4F)c(=O)n3c(C)n2)cc1
803 | COc1ccccc1C(=O)Nc1cccn2ncnc12
1070 | Cc1cc(C)cc(S(=O)(=O)N2CCC(n3cnc4c(C)cccc4c3=O)CC2)c1
899 | CCC(C)NC(=O)c1cnn(-c2ccc(-c3nc(C4CC4)no3)cn2)c1C (stereo not drawn)

Compound | RP-LC retention time [s]
COc1ccc(CNC(=O)N2CCC3(C2)C(=O)N(C)c2ccc(OC)cc23)cc1 (stereo not drawn) | 747
O=C(c1nc(-c2ccnc(N3CCCC3)c2)no1)N1CCC2(CC1)OCCO2 | 617
CCCn1cc(C(=O)NC(C)c2ccc(OC)cc2)c2cccnc21 (stereo not drawn) | 869
